In patent publication US20040214767A1, “Regulation of follicular development and ovulation by cytoskeletal genes and gene products” (priority 2002, published 2004):

Test system: rat primary granulosa cells
Test: Effects of CHX and alpha-amanitin on FSH/forskolin-induced expression of cytoskeletal genes in granulosa cells
Type: cell-based
Details: for β-tubulin mRNA: with or without FSH
Procedure: FIG. 8. Effects of CHX and alpha-amanitin treatment on the FSH/forskolin-induced expression of the cytoskeletal genes. Granulosa cells were isolated from the ovaries of 170 estradiol primed 24 day old immature rats. They were cultured in the medium containing FSH (30 ng/ml) or forskolin (10 microM, FSK) in the presence or absence of CHX (10 μg/ml) for 6 hours (A) or 24 hours (B). In addition, the 24 hours cells were also cultured, likewise, in the presence of alpha-amanitin (30 microg/ml, AMA). Total RNA was isolated and analyzed for mRNAs of TM4, Khc, beta-tubulin and inhibin alpha as described in the description of FIG. 7. Values are the meanfold increase over control (no treatment)±SE. Values were pooled from two separate experiments.
As a step to determine the mechanisms of the FSH-responsive mRNA expression, the granulosa cells were treated with FSH in the presence or absence of a translation inhibitor, CHX, and a transcription inhibitor, alpha amanitin.
Eighteen to twenty-one day old Sprague-Dawley female pups with nursing mothers were purchased from Harlan Breeding Company (Indianapolis, Ind.) and housed in a photoperiod of 14 h light/10 h darkness with light on at 0500 h. For in situ hybridization, rats were injected subcuteneoulsy with 15 IU PMSG (Sigma) in 0.1 ml PBS on 22-23 days of age. Depending on the experiments, PMSG 48 hours-primed rats were injected i.p. with 10 IU hCG. Ovaries were frozen on dry ice immediately after excision and stored at −80 C. […] Ovaries were collected in ice-cold serum-free 4F medium consisting of 15 mM HEPES (pH 7.4), 50% DMEM and 50% Ham's F12 with bovine transferrin (5 micro g/ml), human insulin (2 mg/ml), hydrocortisone (40 ng/ml) and antibiotics, and processed as previously described. Cells were washed three times, resuspended in 4F, plated on serum-coated. Six-well plate (1×10^6 cells in 2 ml per well), and incubated at 37 C for 16 hours. FSH (30 ng/ml) or forskolin (10 micro M) was added to the cell cultures. For the inhibition of protein synthesis or transcription, 10 micro g/ml of cycloheximide (CHX) or alpha-amanitin (30 microg/ml) was, respectively, added 1 h before hormone treatment.
RT-PCR was performed essentially as previously described (Ko, et al., Endocrinology 140:5185-5194. Total RNA (1-2 micro g) was reverse-transcribed at 37 C in a 20 micro L reaction volume using random hexamer (500 ng) and MMLV reverse transcriptase (10 units) (New England BioLabs, Boston, Mass.). Complementary DNA (cDNA) samples (2 micro L) were added to a total 25 micro L reaction mix containing the primers (200 ng each), 0.4 mM dNTP mixture, and Taq DNA polymerase (2.5 U) in 1×PCR buffer (10 mM Tris, pH 8.3, 50 mM KCl, 1.5 mM MgCl2, 0.01% gelatin). All PCR amplifications were carried out for 20, 25 or 30 cycles on a MJ Research Minicycler. PCR products were separated by 2% agarose gel electrophoresis, stained with SYBR® Green I (Molecular Probes), and visualized by phosphoimaging technology (FLA-2000; Fuji, Stamford, Conn.). The following primers were used in the present studies: TM4 (5′-gag aac tcc tga ctg aac tgg acg-3′(SEQ ID NO. 1) and 5′-cca tat tcc ctg ctg agc gta g-3′(SEQ ID NO. 2), 282 bp), Khc (5′-aac tga atc gcc tcc aag cag-3′ and 5′-cga act ggc gag aac tgg atg-3′, 195 bp), β-tubulin (5′-cct gct cat cag caa gat tcg-3′(SEQ ID NO. 3) and 5′-gtg gtg agc tta agg gta cgg, (SEQ ID NOI 4) 210 bp), and inhibin alpha subunit (5′-gct ttc cct ctg ttg acc cac-3′ (SEQ ID NO. 5) and 5′-aga tgt tga ggg cag ctc gat-3′, (SEQ ID NO. 6) 255 bp). L-19 (5′-ctg aag gtc aaa ggg aat gtg-3 (SEQ ID NO. 7) and 5′-gga cag agt ctt gat gat ctc, (SEQ ID NO. 8) 194 bp) oligo nucleotide primers were used to amplify ribosomal protein L-19 as an internal control.

[1] = alpha-amanitin 30 microg/ml, 24 hours
[2] = cells treated with FSH for 24 hours
[3] = CHX, cells treated with FSH for 24 hours
[4] = CHX, cells treated with FSH for six hours

| Structure (SMILES) | FSH-induced mRNA expression of all of the cytoskeletal and inhibin alpha genes [1] | β-tubulin mRNA [1] | effect on Khc mRNA level [2] | β-tubulin mRNA level (24 hours FSH in the presence of CHX) | β-tubulin mRNA (CHX 10 μg/ml, 6 hours) | TM4 mRNA level [3] | inhibin alpha mRNA level [3] | Khc mRNA level [4] | TM4 mRNA level [4] | inhibin alpha mRNA level [4] |
| --- | --- | --- | --- | --- | --- | --- | --- | --- | --- | --- |
| CC[C@H](C)[C@@H]1NC(=O)CNC(=O)[C@@H]2Cc3c([nH]c4cc(O)ccc34)[S+]([O-])C[C@@H](NC(=O)CNC1=O)C(=O)N[C@@H](CC(N)=O)C(=O)N1C[C@H](O)C[C@H]1C(=O)N[C@@H]([C@@H](C)[C@@H](O)CO)C(=O)N2 (stereo partly drawn) [alpha amanitin, alpha-amanitin] | blocked | blocked both the maintenance and FSH dependent increase | marginal | – | – | – | – | – | – | – |
| C[C@@H]1C[C@@H]([C@H](O)CC2CC(=O)NC(=O)C2)C(=O)[C@@H](C)C1 [CHX, cycloheximide] | – | – | marginal | decreased to apparent basal level | could not be detected | slightly enhancing | substantially suppressing | lowered the Khc mRNA level, though not completely | increased | increased |
